Assay results: patent US12545660B2, “Crystalline forms of a farnesoid X receptor agonist” (ELI LILLY AND COMPANY, priority 2020, dated 2026)

Tests used:
[1] = Dynamic Vapor Sorption (DVS); assay type: physicochemical; conditions: for water content at 95% RH (DVS) / hygroscopicity (DVS): 25° C.; for water content at 95% RH (DVS): two complete sorption/desorption cycles; for hygroscopicity (DVS): DVS isotherm
Experimental: Sorption isotherms were obtained using a SMS DVS Intrinsic moisture sorption analyzer, controlled by DVS Intrinsic Control software v1.0.1.2 (or v1.0.1.3). The sample temperature was maintained at 25° C. by the instrument controls. The humidity was controlled by mixing streams of dry and wet nitrogen, with a total flow rate of 200 ml/min. The relative humidity (RH) was measured by a calibrated Rotronic probe (dynamic range of 1.0-100% RH), located near the sample. The weight change, (mass relaxation) of the sample as a function of % RH was constantly monitored by the microbalance (accuracy ±0.005 mg).

[2] = molecular target: T1, hFXR (Homo sapiens, UniProt Q96RI1); assay: In Vitro FXR Assay (TK); assay type: cell-based; conditions: CV-1 cells transfected with hFXR, hRXR, TK-ECRE-luc and pCMX-YFP; incubated 18 hrs; luminescence
T1 construct: expressed in transfected cells; host or cells: CV-1 cells
T1 sequence (Q96RI1 1-486): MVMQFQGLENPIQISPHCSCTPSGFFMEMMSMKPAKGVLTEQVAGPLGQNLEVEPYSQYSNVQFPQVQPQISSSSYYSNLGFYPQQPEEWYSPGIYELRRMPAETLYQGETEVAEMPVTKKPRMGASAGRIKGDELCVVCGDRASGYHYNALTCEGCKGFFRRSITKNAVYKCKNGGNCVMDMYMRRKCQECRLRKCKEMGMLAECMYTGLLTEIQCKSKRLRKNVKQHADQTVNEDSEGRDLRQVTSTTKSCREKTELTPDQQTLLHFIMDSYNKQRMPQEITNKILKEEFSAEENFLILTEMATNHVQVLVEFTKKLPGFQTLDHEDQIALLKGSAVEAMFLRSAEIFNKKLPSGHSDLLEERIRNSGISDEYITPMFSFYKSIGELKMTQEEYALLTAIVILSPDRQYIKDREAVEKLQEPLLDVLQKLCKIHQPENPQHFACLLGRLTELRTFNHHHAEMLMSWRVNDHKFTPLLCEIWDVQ
T1 sequence (P19793 1-462 partner): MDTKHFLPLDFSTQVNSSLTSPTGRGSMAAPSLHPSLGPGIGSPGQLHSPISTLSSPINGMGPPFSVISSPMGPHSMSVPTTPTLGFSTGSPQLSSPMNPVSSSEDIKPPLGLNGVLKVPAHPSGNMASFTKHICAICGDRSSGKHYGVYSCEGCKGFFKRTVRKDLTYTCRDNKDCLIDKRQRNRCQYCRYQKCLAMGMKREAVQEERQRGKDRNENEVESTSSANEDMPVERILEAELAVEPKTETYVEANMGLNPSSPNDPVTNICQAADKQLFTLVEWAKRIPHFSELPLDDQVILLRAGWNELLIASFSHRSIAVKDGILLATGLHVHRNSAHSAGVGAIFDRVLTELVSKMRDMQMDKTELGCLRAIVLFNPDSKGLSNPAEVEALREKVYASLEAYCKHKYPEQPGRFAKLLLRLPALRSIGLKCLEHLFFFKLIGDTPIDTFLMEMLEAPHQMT
Experimental: Example 10: In Vitro FXR Assay (TK)
CV-1 were seeded at a density of 2,000,000 cells in a T175 flask with DMEM+10% charcoal double-stripped FBS and incubated at 37° C. in 5% CO2 for 18 h (O/N).
After 18 h of incubation, the medium in the T175 flask was changed with fresh DMEM+10% charcoal super-stripped serum. In a polypropylene tube, 2500 μL OptiMEM (Life Technologies, Cat #31985-062) was combined with expression plasmids for hFXR, hRXR, TK-ECRE-luc and pCMX-YFP. The tube was then briefly vortexed and incubated at room temperature for 5 minutes. Transfection reagent (X-tremeGENE HP from Roche, Cat #06 366 236 001) was added to the OptiMEM/plasmid mixture vortexed and incubated at room temperature for 20 minutes. Following incubation, the transfection reagent/DNA mixture complex was added to cells in the T175 flask and the cells were incubated at 37° C. in 5% CO2 for 18 h (O/N).
Compound 1 was serially diluted in DMSO and added to transfected CV-1 cells. The cells were then incubated for 18 hrs. The next day cells were lysed and examined for luminescence. Compound 1 TK hFXR: EC50≤0.01 μM.

Row | Compound | water content at 95% RH (DVS) [1] [%] | hygroscopicity (DVS) [1] | changes in the XRPD pattern of post-DVS samples [1] | EC50 [2] [nM]
1 | COc1ccc(C23CCC(CN(c4cc(-c5cnn(C(C)(C)C)c5)ccn4)C(=O)[C@H]4CC[C@H](OC(=O)N5CC(O)C5)CC4)(CC2)CC3)cc1C [Form 3 of Compound 1, 4-((4-(1-(tert-butyl)-1H-pyrazol-4-yl)pyridin-2-yl)((4-(4-methoxy-3-methylphenyl)bicyclo[2.2.2]octan-1-yl)methyl)carbamoyl)cyclohexyl 3-hydroxyazetidine-trans-1-carboxylate] | 1.2 | only slightly hygroscopic | no significant changes | 
2 | COc1ccc(C23CCC(CN(c4cc(-c5cnn(C(C)(C)C)c5)ccn4)C(=O)[C@H]4CC[C@H](OC(=O)N5CC(O)C5)CC4)(CC2)CC3)cc1C [Form 4 of Compound 1, 4-((4-(1-(tert-butyl)-1H-pyrazol-4-yl)pyridin-2-yl)((4-(4-methoxy-3-methylphenyl)bicyclo[2.2.2]octan-1-yl)methyl)carbamoyl)cyclohexyl 3-hydroxyazetidine-trans-1-carboxylate] | 1.9 | only slightly hygroscopic | no significant changes | 
3 | COc1ccc(C23CCC(CN(c4cc(-c5cnn(C(C)(C)C)c5)ccn4)C(=O)[C@H]4CC[C@H](OC(=O)N5CC(O)C5)CC4)(CC2)CC3)cc1C [Form 1 of Compound 1, 4-((4-(1-(tert-butyl)-1H-pyrazol-4-yl)pyridin-2-yl)((4-(4-methoxy-3-methylphenyl)bicyclo[2.2.2]octan-1-yl)methyl)carbamoyl)cyclohexyl 3-hydroxyazetidine-trans-1-carboxylate] | 1.2 | only slightly hygroscopic | no significant changes | 
4 | COc1ccc(C23CCC(CN(c4cc(-c5cnn(C(C)(C)C)c5)ccn4)C(=O)[C@H]4CC[C@H](OC(=O)N5CC(O)C5)CC4)(CC2)CC3)cc1C [Compound 1, 4-((4-(1-(tert-butyl)-1H-pyrazol-4-yl)pyridin-2-yl)((4-(4-methoxy-3-methylphenyl)bicyclo[2.2.2]octan-1-yl)methyl)carbamoyl)cyclohexyl 3-hydroxyazetidine-trans-1-carboxylate] |  |  |  | ≤ 10
5 | COc1ccc(C23CCC(CN(c4cc(-c5cnn(C(C)(C)C)c5)ccn4)C(=O)[C@H]4CC[C@H](OC(=O)N5CC(O)C5)CC4)(CC2)CC3)cc1C [Form 2 of Compound 1, 4-((4-(1-(tert-butyl)-1H-pyrazol-4-yl)pyridin-2-yl)((4-(4-methoxy-3-methylphenyl)bicyclo[2.2.2]octan-1-yl)methyl)carbamoyl)cyclohexyl 3-hydroxyazetidine-trans-1-carboxylate] | 1.0 | only slightly hygroscopic | no significant changes | 
